Laboratory results as given in article PMC9005681, “Use of AD Informer Set compounds to explore validity of novel targets in Alzheimer's disease pathology” (Alzheimer's & Dementia : Translational Research & Clinical …, 2022).

Key:
[1] = molecular target: T1, cloned human or rodent CNS receptors, channels, and transporters (PDSP panel) (Homo sapiens, UniProt P35372); assay: PDSP GPCR panel primary binding assays at 10 μM; details: primary assay
T1 construct: expressed in transfected cells
Description: (§1) GPCR panel: Screening against the receptors within the PDSP panel offers an assessment of off-target pharmacological activity at cloned human or rodent CNS receptors, channels, and transporters that could confound CNS-related phenotypes. A total of 46–47 primary binding assays were run in quadruplicate on these compounds at 10 μM, with follow-up secondary binding assays in 11-point dose-response in triplicate for select compounds versus select receptors. Secondary binding assays were executed for all receptors where test compound displaced an average of >50% of radio-labeled standard ligand. As an exception, no secondary assays were carried out for H3, PBR, or GABAA. […]

[2] = molecular target: T2, cloned human or rodent CNS receptors, channels, and transporters (PDSP panel) (Homo sapiens, UniProt P46098); assay: PDSP GPCR panel primary binding assays at 10 μM; details: primary assay
T2 construct: expressed in transfected cells
T2 sequence (P46098 24-478): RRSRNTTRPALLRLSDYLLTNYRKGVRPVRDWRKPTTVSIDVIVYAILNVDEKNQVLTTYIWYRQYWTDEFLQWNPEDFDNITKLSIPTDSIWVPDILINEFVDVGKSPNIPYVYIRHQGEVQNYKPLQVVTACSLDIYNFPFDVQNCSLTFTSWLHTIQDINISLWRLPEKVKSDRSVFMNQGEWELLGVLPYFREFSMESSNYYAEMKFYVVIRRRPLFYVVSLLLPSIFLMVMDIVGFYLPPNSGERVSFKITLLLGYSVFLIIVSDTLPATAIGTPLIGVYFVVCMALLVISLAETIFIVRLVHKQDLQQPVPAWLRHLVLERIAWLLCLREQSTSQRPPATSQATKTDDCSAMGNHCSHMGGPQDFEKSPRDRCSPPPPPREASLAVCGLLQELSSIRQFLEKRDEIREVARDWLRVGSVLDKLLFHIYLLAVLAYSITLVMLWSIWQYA
Description: as §1

[3] = molecular target: T3, cloned human or rodent CNS receptors, channels, and transporters (PDSP panel) (Homo sapiens, UniProt P25021); assay: PDSP GPCR panel primary binding assays at 10 μM; details: primary assay
T3 construct: expressed in transfected cells
Description: as §1

[4] = molecular target: T4, cloned human or rodent CNS receptors, channels, and transporters (PDSP panel) (Homo sapiens, UniProt P08172); assay: PDSP GPCR panel primary binding assays at 10 μM; details: primary assay
T4 construct: expressed in transfected cells
T4 sequence (P08172 1-466): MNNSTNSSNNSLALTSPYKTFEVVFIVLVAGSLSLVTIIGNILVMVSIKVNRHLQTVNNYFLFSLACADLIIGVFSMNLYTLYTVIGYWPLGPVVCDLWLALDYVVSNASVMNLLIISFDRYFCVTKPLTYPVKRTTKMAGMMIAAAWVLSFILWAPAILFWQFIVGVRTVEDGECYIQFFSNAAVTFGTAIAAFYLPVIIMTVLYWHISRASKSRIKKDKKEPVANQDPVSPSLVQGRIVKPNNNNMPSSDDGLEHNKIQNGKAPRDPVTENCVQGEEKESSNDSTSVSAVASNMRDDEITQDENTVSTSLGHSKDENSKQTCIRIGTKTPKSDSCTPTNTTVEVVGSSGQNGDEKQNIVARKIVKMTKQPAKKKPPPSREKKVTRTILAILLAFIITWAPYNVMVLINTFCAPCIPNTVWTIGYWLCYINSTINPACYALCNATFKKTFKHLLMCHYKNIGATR
Description: as §1

[5] = molecular target: T5, cloned human or rodent CNS receptors, channels, and transporters (PDSP panel) (Homo sapiens, UniProt P41145); assay: PDSP GPCR panel primary binding assays at 10 μM; details: primary assay
T5 construct: expressed in transfected cells
Description: as §1

[6] = molecular target: T6, cloned human or rodent CNS receptors, channels, and transporters (PDSP panel) (Homo sapiens, UniProt P41595); assay: PDSP GPCR panel primary binding assays at 10 μM; details: primary assay
T6 construct: expressed in transfected cells
Description: as §1

[7] = molecular target: T7, cloned human or rodent CNS receptors, channels, and transporters (PDSP panel) (Homo sapiens, UniProt P08912); assay: PDSP GPCR panel primary binding assays at 10 μM; details: primary assay
T7 construct: expressed in transfected cells
T7 sequence (P08912 1-532): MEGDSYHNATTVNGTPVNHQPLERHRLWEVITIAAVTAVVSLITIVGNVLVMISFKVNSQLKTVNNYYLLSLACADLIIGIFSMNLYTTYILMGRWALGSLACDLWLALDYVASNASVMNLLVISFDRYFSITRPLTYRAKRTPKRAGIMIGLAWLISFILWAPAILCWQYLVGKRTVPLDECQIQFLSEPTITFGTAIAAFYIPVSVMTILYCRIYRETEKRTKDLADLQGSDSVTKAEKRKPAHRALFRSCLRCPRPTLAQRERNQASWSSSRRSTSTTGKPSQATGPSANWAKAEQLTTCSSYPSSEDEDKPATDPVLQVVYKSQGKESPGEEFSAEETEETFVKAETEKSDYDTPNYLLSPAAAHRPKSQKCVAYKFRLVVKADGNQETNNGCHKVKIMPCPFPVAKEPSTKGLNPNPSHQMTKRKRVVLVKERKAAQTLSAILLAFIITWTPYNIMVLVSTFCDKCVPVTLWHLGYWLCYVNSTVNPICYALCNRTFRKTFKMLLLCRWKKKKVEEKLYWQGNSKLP
Description: as §1

[8] = molecular target: T8, cloned human or rodent CNS receptors, channels, and transporters (PDSP panel) (Homo sapiens, UniProt P21918); assay: PDSP GPCR panel primary binding assays at 10 μM; details: primary assay
T8 construct: expressed in transfected cells
Description: as §1

[9] = cited from earlier work; for Kinetic solubility: aqueous, neutral pH (7.4)
cellular system = tested on: cellular system; set-up: method as in column References for potency and dosing (the 5th table c13); details: published data; References for potency and dosing; cited from earlier work

T3 sequence (P25021 whole entry): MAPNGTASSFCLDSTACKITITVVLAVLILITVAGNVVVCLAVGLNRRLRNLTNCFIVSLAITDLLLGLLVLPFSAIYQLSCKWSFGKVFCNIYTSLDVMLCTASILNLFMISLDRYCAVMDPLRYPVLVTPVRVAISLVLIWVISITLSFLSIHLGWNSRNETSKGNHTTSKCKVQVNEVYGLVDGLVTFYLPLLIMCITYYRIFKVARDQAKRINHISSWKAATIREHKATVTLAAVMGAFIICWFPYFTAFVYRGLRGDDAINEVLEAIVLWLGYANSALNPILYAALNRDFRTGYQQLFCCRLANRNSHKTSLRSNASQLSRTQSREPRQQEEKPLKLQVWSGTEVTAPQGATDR
T8 sequence (P21918 whole entry): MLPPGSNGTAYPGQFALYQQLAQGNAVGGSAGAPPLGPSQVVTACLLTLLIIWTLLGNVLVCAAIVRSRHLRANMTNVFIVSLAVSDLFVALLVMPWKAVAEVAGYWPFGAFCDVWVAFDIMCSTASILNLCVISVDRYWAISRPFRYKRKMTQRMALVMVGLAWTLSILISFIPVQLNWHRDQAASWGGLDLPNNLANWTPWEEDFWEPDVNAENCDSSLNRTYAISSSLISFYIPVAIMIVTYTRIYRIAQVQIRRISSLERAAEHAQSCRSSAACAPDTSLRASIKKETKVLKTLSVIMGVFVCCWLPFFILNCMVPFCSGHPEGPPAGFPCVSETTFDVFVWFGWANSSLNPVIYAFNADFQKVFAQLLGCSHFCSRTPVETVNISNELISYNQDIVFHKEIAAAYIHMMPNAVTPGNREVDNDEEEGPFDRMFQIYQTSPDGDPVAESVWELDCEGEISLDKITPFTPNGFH
T5 sequence (P41145 whole entry): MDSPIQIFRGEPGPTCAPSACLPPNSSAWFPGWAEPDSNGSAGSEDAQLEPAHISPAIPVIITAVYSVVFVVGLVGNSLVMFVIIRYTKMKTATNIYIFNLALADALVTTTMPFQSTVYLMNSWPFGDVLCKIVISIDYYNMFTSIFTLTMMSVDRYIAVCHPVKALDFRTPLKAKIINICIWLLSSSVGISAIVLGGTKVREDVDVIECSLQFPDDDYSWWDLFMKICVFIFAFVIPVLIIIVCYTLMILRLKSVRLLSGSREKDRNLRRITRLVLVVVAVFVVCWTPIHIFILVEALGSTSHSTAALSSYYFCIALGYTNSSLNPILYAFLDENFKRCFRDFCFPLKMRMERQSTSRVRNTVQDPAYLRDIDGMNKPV
T6 sequence (P41595 whole entry): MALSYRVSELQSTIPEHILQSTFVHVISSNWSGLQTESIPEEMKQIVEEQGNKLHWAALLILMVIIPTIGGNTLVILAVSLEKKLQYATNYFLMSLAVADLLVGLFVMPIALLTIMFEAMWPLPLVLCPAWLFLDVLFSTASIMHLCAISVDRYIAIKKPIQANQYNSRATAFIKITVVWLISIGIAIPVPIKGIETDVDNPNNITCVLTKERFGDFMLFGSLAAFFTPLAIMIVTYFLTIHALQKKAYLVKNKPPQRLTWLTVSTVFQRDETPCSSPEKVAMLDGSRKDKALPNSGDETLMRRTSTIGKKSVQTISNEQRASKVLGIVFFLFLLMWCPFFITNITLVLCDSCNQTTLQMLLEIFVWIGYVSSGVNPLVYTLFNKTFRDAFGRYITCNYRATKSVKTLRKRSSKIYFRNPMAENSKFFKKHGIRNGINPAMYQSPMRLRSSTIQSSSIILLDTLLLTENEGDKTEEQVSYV
T1 sequence (P35372 whole entry): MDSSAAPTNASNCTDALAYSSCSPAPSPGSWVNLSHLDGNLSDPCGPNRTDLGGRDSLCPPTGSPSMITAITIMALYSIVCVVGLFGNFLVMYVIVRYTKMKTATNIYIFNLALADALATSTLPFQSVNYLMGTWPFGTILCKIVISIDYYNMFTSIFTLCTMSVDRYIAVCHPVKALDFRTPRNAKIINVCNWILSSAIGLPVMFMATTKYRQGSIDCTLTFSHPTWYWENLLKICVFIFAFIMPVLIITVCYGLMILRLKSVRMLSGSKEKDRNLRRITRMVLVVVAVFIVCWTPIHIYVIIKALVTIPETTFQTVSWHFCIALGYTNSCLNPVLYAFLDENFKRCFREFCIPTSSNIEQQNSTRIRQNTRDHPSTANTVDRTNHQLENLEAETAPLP

## c1cn2cc(-c3ccc4cn[nH]c4c3)nc(Nc3ccc(N4CCOCC4)cc3)c2n1 [UNC10302678A, Entospletinib (GS-9973)]
[1]; Receptor MOR, 10 μM
  Inhibition 1: -0.9%
  Inhibition 2: 12.23%
  Inhibition 3: 5.91%
  Inhibition 4: -3.58%
[1]; Receptor MOR, 10 μM, mean of Inhibition 1-4
  Mean %: 3.42%
[2]; Receptor 5-HT3, 10 μM
  Inhibition 1: 20.59%
  Inhibition 2: 12.98%
  Inhibition 3: 21.06%
  Inhibition 4: 14.69%
[2]; Receptor 5-HT3, 10 μM, mean of Inhibition 1-4
  Mean %: 17.33%
[3]; Receptor H2, 10 μM
  Inhibition 1: 34.86%
  Inhibition 2: 31.07%
  Inhibition 3: 0.58%
  Inhibition 4: -19.99%
[3]; Receptor H2, 10 μM, mean of Inhibition 1-4
  Mean %: 11.63%
[4]; Receptor M2, 10 μM
  Inhibition 1: -17.67%
  Inhibition 2: -16.44%
  Inhibition 3: -12.26%
  Inhibition 4: -13.73%
[4]; Receptor M2, 10 μM, mean of Inhibition 1-4
  Mean %: -15.03%
[5]; Receptor KOR, 10 μM
  Inhibition 1: -28.1%
  Inhibition 2: -33.36%
  Inhibition 3: -49.37%
  Inhibition 4: -45.23%
[5]; Receptor KOR, 10 μM, mean of Inhibition 1-4
  Mean %: -39.02%
[6]; Receptor 5-HT2B, 10 μM
  Inhibition 1: 61.2%
  Inhibition 2: 0.79%
  Inhibition 3: -21.45%
  Inhibition 4: 15.05%
[6]; Receptor 5-HT2B, 10 μM, mean of Inhibition 1-4
  Mean %: 13.9%
[7]; Receptor M5, 10 μM
  Inhibition 1: -6.98%
  Inhibition 2: -7.99%
  Inhibition 3: 1.47%
  Inhibition 4: 5.9%
[7]; Receptor M5, 10 μM, mean of Inhibition 1-4
  Mean %: -1.9%
[8]; Receptor D5, 10 μM
  Inhibition 1: 5.49%
  Inhibition 2: 5.93%
  Inhibition 3: 8.99%
  Inhibition 4: 11.03%
[8]; Receptor D5, 10 μM, mean of Inhibition 1-4
  Mean %: 7.86%
[9]
  Kinetic solubility: 0.5 µM
[9]; kinetic solubility experiments
  Kinetic solubility (in words): solubility issues
Cellular system
  Reported as cell active (<10 μM): Y (Published data supports that the compound is active in a cellular system when dosed at 10 μM (Y/N))

## CNc1nc(C)nc(N[C@H]2CCC[C@@H](C(=O)NCc3ccc(C#N)cc3C(F)(F)F)C2)n1 [UNC10302679A, GSK2256294A]
[1]; MOR, mean inhibition
  Mean %: -0.18%
[1]; MOR, replicate 1
  Inhibition 1: -0.8%
[1]; MOR, replicate 2
  Inhibition 2: 0.06%
[1]; MOR, replicate 3
  Inhibition 3: 1.4%
[1]; MOR, replicate 4
  Inhibition 4: -1.38%
[2]; 5-HT3, mean inhibition
  Mean %: 8.2%
[2]; 5-HT3, replicate 1
  Inhibition 1: 4.04%
[2]; 5-HT3, replicate 2
  Inhibition 2: 9.4%
[2]; 5-HT3, replicate 3
  Inhibition 3: -1.71%
[2]; 5-HT3, replicate 4
  Inhibition 4: 21.06%
[3]; H2, mean inhibition
  Mean %: -21%
[3]; H2, replicate 1
  Inhibition 1: -8.72%
[3]; H2, replicate 2
  Inhibition 2: -33.49%
[3]; H2, replicate 3
  Inhibition 3: -19.51%
[3]; H2, replicate 4
  Inhibition 4: -22.27%
[4]; M2, mean inhibition
  Mean %: -9.25%
[4]; M2, replicate 1
  Inhibition 1: -13.73%
[4]; M2, replicate 2
  Inhibition 2: -23.07%
[4]; M2, replicate 3
  Inhibition 3: -14.72%
[4]; M2, replicate 4
  Inhibition 4: 14.53%
[5]; KOR, mean inhibition
  Mean %: -10.86%
[5]; KOR, replicate 1
  Inhibition 1: -18.36%
[5]; KOR, replicate 2
  Inhibition 2: -17.69%
[5]; KOR, replicate 3
  Inhibition 3: 0.34%
[5]; KOR, replicate 4
  Inhibition 4: -7.72%
[6]; 5-HT2B, mean inhibition
  Mean %: -22.71%
[6]; 5-HT2B, replicate 1
  Inhibition 1: -0.89%
[6]; 5-HT2B, replicate 2
  Inhibition 2: -25.64%
[6]; 5-HT2B, replicate 3
  Inhibition 3: -26.48%
[6]; 5-HT2B, replicate 4
  Inhibition 4: -37.81%
[7]; M5, mean inhibition
  Mean %: -6.81%
[7]; M5, replicate 1
  Inhibition 1: 1.27%
[7]; M5, replicate 2
  Inhibition 2: -10.6%
[7]; M5, replicate 3
  Inhibition 3: -10.81%
[7]; M5, replicate 4
  Inhibition 4: -7.08%
[8]; D5, mean inhibition
  Mean %: -9.97%
[8]; D5, replicate 1
  Inhibition 1: 0.61%
[8]; D5, replicate 2
  Inhibition 2: -8.1%
[8]; D5, replicate 3
  Inhibition 3: -21.39%
[8]; D5, replicate 4
  Inhibition 4: -11%
[9]
  Kinetic solubility: 147.5 µM
Cellular system
  Reported as cell active (<10 μM): Y (Published data supports that the compound is active in a cellular system when dosed at 10 μM (Y/N))
